Activity calls are given as the source filed them. The rule behind the calls is not given here.
How the values were obtained:
[1] = system: Plasmodium falciparum; experiment: Ratio of compound IC50 to APM IC50 for Plasmodium falciparum 3D7; type: functional
[2] = system: Plasmodium falciparum; experiment: Antimalarial activity against Plasmodium falciparum 3D7 infected in O-positive human erythrocytes assessed as inhibition of parasite lactate dehydrogenase after 72 hrs by pLDH method; type: functional, organism-based; settings: 3D7, 72 h
[3] = system: Plasmodium falciparum; experiment: Antimicrobial activity against Plasmodium falciparum; type: functional, organism-based
[4] = system: Plasmodium falciparum; experiment: Antimicrobial activity against Plasmodium falciparum up to 128 uM; type: functional, organism-based
[5] = system: Cryptosporidium parvum; experiment: Antimicrobial activity against Cryptosporidium parvum infected in HCT8 cells assessed as parasite count after 72 to 120 hrs; type: functional, organism-based; settings: HCT-8

Structure (SMILES)	Ratio IC50 [1]	IC50 [2]	IC50 [3]	inhibition [4]	IC50 [5]
CCCCCNP(=O)(OCC)Oc1ccc(C)cc1[N+](=O)[O-] (stereo unspecified)	20	51 µM			
CCCCNP(=O)(OCC)Oc1ccc(C)cc1[N+](=O)[O-] (stereo unspecified)	20	28 µM			
CCN(CC)CCN(CC)c1c([N+](=O)[O-])cc([N+](=O)[O-])cc1C(F)(F)F			0.44 µM		
CCOP(NC1CCCC1)Oc1ccc(Br)cc1 (stereo unspecified)		128 µM			
CCOP(=O)(NC(C)C)Oc1ccc(C)cc1[N+](=O)[O-] (stereo unspecified)	20	126 µM			
CCOP(=O)(NC(C)C)Oc1ccc([N+](=O)[O-])cc1C (stereo unspecified)	20	128 µM			
CCOP(=O)(NC(C)C)Oc1ccc2ccccc2c1[N+](=O)[O-] (stereo unspecified)	20	87 µM			
CCCNP(=O)(OCC)Oc1cc(C)ccc1[N+](=O)[O-] (stereo unspecified)	20	102 µM			
CCOP(=O)(NC(C)C)Oc1ccc(C)cc1OC (stereo unspecified)	20	128 µM			
CCOP(=O)(NCC(C)C)Oc1ccc(C(F)(F)F)cc1 (racemic)	20	40 µM			
CC(C)OC(=O)Nc1cccc(Cl)c1				inactive	
CCCNP(=O)(OCC)Oc1ccc(C)cc1[N+](=O)[O-] (stereo unspecified)	20	> 128 µM			
CCOP(=O)(NC(C)C)Oc1ccc2ccccc2c1 (stereo unspecified)	20	72 µM			
CCOP(=O)(NC1CCC1)Oc1ccc(C(F)(F)F)cc1 (stereo unspecified)	20	45 µM			
CCCCCNP(=S)(OCC)Oc1ccc([N+](=O)[O-])cc1C (stereo unspecified)		6.9 µM			
CCCN(CCC)c1c([N+](=O)[O-])cc(C(F)(F)F)cc1[N+](=O)[O-] [TRIFLURALIN]			2.9 µM		0.75 µM
CCOP(=O)(NC(C)C)Oc1ccc(C)cc1Br (stereo unspecified)	20	39 µM			
CCOP(=O)(NCC(C)C)Oc1ccc(C)cc1[N+](=O)[O-] (stereo unspecified)	20	75 µM			
CCCCCCCNP(=O)(OCC)Oc1ccc(C(F)(F)F)cc1 (stereo unspecified)	20	44 µM			
CCOP(=O)(NC(C)C)Oc1ccccc1C(F)(F)F (stereo unspecified)	20	87 µM			
CCOP(=O)(NC(C)C)Oc1cccc(C(F)(F)F)c1 (stereo unspecified)	20	50 µM			
CCOP(=O)(NC1CCCCC1)Oc1ccc(C(F)(F)F)cc1 (stereo unspecified)	20	43 µM			
CCOP(=O)(Nc1ccc(C)cc1Cl)Oc1ccc(C)cc1Cl (stereo unspecified)	20	102 µM			
CCOP(=O)(NC(C)C)Oc1ccc(C)cc1Cl (stereo unspecified)	20	39 µM			

Structure (SMILES)	Ratio IC50 [1]	IC50 [2]	IC50 [3]	inhibition [4]	IC50 [5]
COP(=S)(NC(C)C)Oc1ccc(C)cc1[N+](=O)[O-] (stereo unspecified) [AMIPROPHOS METHYL]		4 µM			
CCOP(=O)(NC(C)C)Oc1cc(C)ccc1[N+](=O)[O-] (stereo unspecified)	20	> 128 µM			
CCCCNP(=O)(OCC)Oc1ccc(C(F)(F)F)cc1 (stereo unspecified)	20	32 µM			
CCOP(=O)(Oc1ccc(C(F)(F)F)cc1)N1CCCC1 (stereo unspecified)	20	56 µM			
CCOP(=O)(NC(C)C)Oc1ccc(C)cc1C#N (stereo unspecified)	20	128 µM			
CCOP(=O)(NC(C)C)Oc1ccc([N+](=O)[O-])c(C)c1 (stereo unspecified)	20	79 µM			
CCCCCNP(=S)(OCC)Oc1ccc(C(F)(F)F)cc1 (stereo unspecified)		4.5 µM			
CCOP(=O)(Oc1ccc(C(F)(F)F)cc1)N1CCCCC1 (stereo unspecified)	20	84 µM			
CCOP(N)(=O)Oc1ccc(C(F)(F)F)cc1 (stereo unspecified)	20	79 µM			
CCOP(=S)(NC1CCCC1)Oc1ccc(Br)cc1 (stereo unspecified)		23 µM			
CCOP(=S)(NC1CCCC1)Oc1ccc([N+](=O)[O-])cc1C (stereo unspecified)		1.6 µM			
CCOP(=O)(NC1CCCC1)Oc1ccc(C)cc1[N+](=O)[O-] (stereo unspecified)	20	47 µM			
CCOP(=O)(NC1CCCC1)Oc1ccc(C(F)(F)F)cc1 (stereo unspecified)	20	26 µM			
CCOP(=O)(Oc1ccc(C(F)(F)F)cc1)N1CCOCC1 (stereo unspecified)	20	98 µM			
CCOP(=O)(NC1CCCC1)Oc1ccc(Br)cc1 (stereo unspecified)	20	17 µM			
CCOP(=O)(NC(C)C)Oc1cccc([N+](=O)[O-])c1C (stereo unspecified)	20	128 µM			
CCOP(=O)(NC(C)C)Oc1cc([N+](=O)[O-])ccc1C (stereo unspecified)	20	128 µM			
CCCN(CCC)c1c([N+](=O)[O-])cc(S(N)(=O)=O)cc1[N+](=O)[O-] [ORYZALIN]					0.8 µM
O=[N+]([O-])c1cc([N+](=O)[O-])c(N2CCC(N3CCCC3)CC2)c(C(F)(F)F)c1			0.44 µM		
CCOP(=O)(NCC(C)C)Oc1cc(C)ccc1[N+](=O)[O-] (stereo unspecified)	20	> 128 µM			
CCOP(=O)(NC(C)C)Oc1ccccc1 (stereo unspecified)	20	> 128 µM			
CCOP(=S)(NC1CCCC1)Oc1ccc(C(F)(F)F)cc1 (stereo unspecified)	20	8.6 µM			
CCOP(=O)(NC(C)C)Oc1ccc(C(F)(F)F)cc1 (stereo unspecified)	20	50 µM			
CCOP(=O)(Oc1ccc(C(F)(F)F)cc1)N(CC)CC (stereo unspecified)	20	48 µM			

Source: ChEMBL document CHEMBL1833836, “Synthesis and evaluation of phosphoramidate and phosphorothioamidate analogues of amiprophos methyl as potential antimalarial agents” (Bioorg Med Chem Lett, 2011)
